Test results reported in publication PMC2943919, “Green Tea Catechin, Epigallocatechin Gallate, Suppresses Signaling by the dsRNA Innate Immune Receptor RIG-I” (PLoS ONE, 2010).

What was measured:
[1] = target: T1, RIG-I (Retinoic acid-inducible gene I) (Homo sapiens, UniProt O95786); assay: RNA-dependent ATPase assay (ADP-Glo) at […]; format: biochemical; design: gene RIGI; recombinant RIG-I
T1 sequence (O95786 1-925): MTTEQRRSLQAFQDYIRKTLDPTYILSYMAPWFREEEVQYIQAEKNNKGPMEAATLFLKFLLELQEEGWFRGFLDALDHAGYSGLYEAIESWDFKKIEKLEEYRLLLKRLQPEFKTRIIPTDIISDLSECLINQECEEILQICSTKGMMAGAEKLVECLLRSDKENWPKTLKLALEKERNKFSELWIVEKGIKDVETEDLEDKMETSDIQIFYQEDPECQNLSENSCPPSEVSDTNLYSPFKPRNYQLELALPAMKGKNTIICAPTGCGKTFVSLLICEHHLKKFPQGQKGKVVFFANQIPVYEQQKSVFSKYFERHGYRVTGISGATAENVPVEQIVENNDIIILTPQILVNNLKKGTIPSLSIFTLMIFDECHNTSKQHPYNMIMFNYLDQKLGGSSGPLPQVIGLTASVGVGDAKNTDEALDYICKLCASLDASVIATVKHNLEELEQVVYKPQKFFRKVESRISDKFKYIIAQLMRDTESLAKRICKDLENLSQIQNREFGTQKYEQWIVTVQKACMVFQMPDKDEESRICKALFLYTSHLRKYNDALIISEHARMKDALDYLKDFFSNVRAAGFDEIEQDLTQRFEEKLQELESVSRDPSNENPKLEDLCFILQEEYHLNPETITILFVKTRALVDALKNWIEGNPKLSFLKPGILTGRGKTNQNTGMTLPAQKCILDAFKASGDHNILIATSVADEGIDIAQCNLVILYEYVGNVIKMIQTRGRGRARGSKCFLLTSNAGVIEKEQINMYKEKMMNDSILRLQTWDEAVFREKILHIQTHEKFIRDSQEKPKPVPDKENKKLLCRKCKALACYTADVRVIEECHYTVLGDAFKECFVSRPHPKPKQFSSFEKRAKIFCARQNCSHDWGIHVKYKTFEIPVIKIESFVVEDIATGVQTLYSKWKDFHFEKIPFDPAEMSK

[2] = target: T1, RIG-I (Retinoic acid-inducible gene I); assay: RNA-dependent ATPase assay (ADP-Glo) with recombinant RIG-I; supported by native gel mobility shift; format: biochemical; design: gene RIGI; recombinant full length RIG-I

IC50 [2] [µM]	Compound	RNA-dependent ATPase assay (ADP-Glo) at 0.5 and 1 μM [1]
	O=C(O[C@@H]1Cc2c(O)cc(O)cc2O[C@H]1c1cc(O)c(O)c(O)c1)c1cc(O)c(O)c(O)c1 [GCG, gallocatechin gallate]	GCG, ECG, CG and TFDG inhibited the shR9-induced RIG-I ATPase activity to similar degree as EGCG
	O=C(O[C@@H]1Cc2c(O)cc(O)cc2O[C@@H]1c1ccc(O)c(O)c1)c1cc(O)c(O)c(O)c1 [ECG, epicatechin gallate]	GCG, ECG, CG and TFDG inhibited the shR9-induced RIG-I ATPase activity to similar degree as EGCG
< 0.5	O=C(O[C@@H]1Cc2c(O)cc(O)cc2O[C@@H]1c1cc(O)c(O)c(O)c1)c1cc(O)c(O)c(O)c1 [EGCG, Epigallocatechin gallate]	
